From EP0949238A1, “SUBSTITUTED PROPIONYL DERIVATIVES” (DAIICHI PHARMACEUTICAL CO., LTD., priority 1996, dated 1998)
pIC50: −log10 of the molar value.

What was measured:
[1] = system: rat liver cells; experiment: Cholesterol synthesis inhibitory activity in rat liver cells ([14C]-acetic acid uptake in cholesterol); format: cell-based; conditions: concentration inhibiting 50% of [14C] acetic acid radioactivity uptake into cholesterol; SD rat liver cells; read-out: Cholesterol synthesis inhibitory action in rat liver cells IC50 (10^-6M)
Experimental: Liver cells were isolated from rat livers by the in situ collagenase perfusion method. Described specifically, a 6-week-old male SD rat was intraperitoneally administered with a 50 mg/ml pentobarbital sodium solution and thereby anesthetized. After ventrotomy and cannulation from the portal vein, the rat was sacrificed under exsanguination by the excision of the lower large vein. From the cannula, a Hanks solution (pH 7.2) containing 2% albumin, 0.5 mM ethyleneglycolbis(2-aminoethylether) tetraacetate (EGTA) and 10 mM HEPES and being free from a divalent calcium ion and a divalent magnesium ion was subjected to perfusion (flow rate: 0.5 ml/sec) for 5 minutes. The Hanks solution was then changed to another Hanks solution (pH 7.5) having 0.05% collagenase, 4 mM calcium chloride and 10 mM HEPES added thereto and perfusion was continued for further 15 to 20 minutes. After confirmation of the sufficient digestion by collagenase, the liver tissue was placed on a Petri dish, 30 ml of a Dulbeco's modified Eagle's (DEM) medium was added thereto and cells were dispersed by drawing through suction. A cell filter was employed to remove the undigested tissue. The resulting cell suspension was subjected to centrifugal separation at 600 rpm for 1 minute. A 30 ml of DME medium was added to the sediment to disperse the cells, followed by centrifugal separation at 600 rpm for 1 minute. After these washing procedures by centrifugation were repeated three times in total, the liver cell suspension was suspended in a DME medium containing 10% of lipoprotein deficient serum (LPDS). The resulting suspension was seeded on a commercially-available 6-well plate coated with collagen at a cell density of 1 x 10^6 cells per well, followed by incubation overnight in a CO2 incubator (5% CO2 gas, 37°C).
The uptake of [^14C]-acetic acid radioactivity in cholesterol was measured using the liver cells prepared in the above-described manner and the cholesterol synthesis inhibitory activity of the test medicament was evaluated.
Described specifically, the cell culture medium of the liver cells was replaced by a 25 mM HEPES-10% LPDS-DME medium (pH 7.4) containing the test medicament, followed by incubation for one hour in a CO2 incubator. Then, [^14C] sodium acetate was added to give the final concentration of 1 µCi/ml. After incubation for further one hour in the CO2 incubator, the cell culture medium was removed. The cells were washed three times with a phosphate buffered saline (pH 7.2) and then dissolved in 1 ml of a 0.1N aqueous sodium hydroxide solution. […] To the vial, 10 ml of Aquasol 2 was added and ^14C and ^3H radioactivities were counted by a liquid scintillation counter.
The cholesterol synthesis inhibitory activity of the test medicament was calculated in the below-described procedures. […]

[2] = molecular target: T1, squalene synthetase (Homo sapiens, UniProt P37268); experiment: Squalene synthetase inhibitory activity (HepG2 cell microsome fraction, [3H]farnesyl pyrophosphate incorporation into squalene); format: biochemical; conditions: HepG2 cell microsome preparation, 5 µM [3H]farnesyl pyrophosphate, 37°C for 20 minutes
T1 construct: 0.01 to 0.1 µg of the HepG2 cell microsome preparation; endogenous in cells; host or cells: HepG2 cells (microsome fraction)
T1 sequence (P37268 1-417): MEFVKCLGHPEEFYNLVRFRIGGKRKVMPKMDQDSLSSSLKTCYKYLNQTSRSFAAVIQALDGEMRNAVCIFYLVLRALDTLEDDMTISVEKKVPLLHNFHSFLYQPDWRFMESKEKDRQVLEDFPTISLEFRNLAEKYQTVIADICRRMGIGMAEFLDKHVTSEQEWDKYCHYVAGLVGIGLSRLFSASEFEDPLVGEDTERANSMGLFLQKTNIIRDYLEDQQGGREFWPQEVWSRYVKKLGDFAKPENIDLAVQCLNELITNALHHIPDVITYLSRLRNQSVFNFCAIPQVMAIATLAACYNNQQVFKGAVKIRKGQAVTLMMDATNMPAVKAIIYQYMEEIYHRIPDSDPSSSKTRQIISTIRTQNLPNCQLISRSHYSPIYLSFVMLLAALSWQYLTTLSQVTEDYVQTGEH
Experimental: As an enzyme source to measure squalane synthetase activity, we prepared a microsome fraction from a human hepatoma-derived cell line, HepG2 cells, according to the method described by Schechter et al. (Journal of Biological Chemistry, Vol. 267, pp.8628-8635, 1992).
Described specifically, HepG2 cells were first homogenized in the presence of a 10 mM N-2-hydroxyethylpiperazin-N'-2-ethanesulfonate (HEPES) buffer containing 0.3M sucrose, 1 mM dithiothreitol (DTT), 1 mM sodium ethylenediaminetetraacetate (EDT) and various protease inhibitors and adjusted to pH 7.4. The resulting mixture was subjected to centrifugal separation at 2,000 x g for 5 minutes and then 10,000 x g for 15 minutes. The protease inhibitors employed were phenylmethanesulfonyl fluoride (PMSF), leupeptin and aprotinin, which were added to give the final concentration of 1 mM, 10 µM and 5 µg/ml, respectively. The supernatant after centrifugation was centrifuged further at 105,000 xg for 60 minutes. The precipitate thus obtained was suspended in a 20 mM phosphate buffer (pH 7.4) containing 1 mM DTT, 1 mM EDTA and the above-described protease inhibitors and the resulting suspension was washed twice by centrifugation at 105,000 x g for 30 minutes. The precipitate was then suspended in a 20 mM phosphate buffer (pH 7.4) containing 1 mM DTT and 1 mM EDTA and the resulting suspension was similarly centrifuged. […]

SMILES	pIC50 [1]	pIC50 [2]
C[C@H](NC(=O)C[C@@H](CC(=O)O)C(=O)O)[C@@H](Cc1ccc(Cl)c(Cl)c1)OC(=O)c1ccc2ccccc2c1 [Compound A, (2S)-2-[N-{(1S,2R)-3-(3,4-dichlorophenyl)-1-methyl-2-(2-naphthoyloxy)propyl}carbamoylmethyl] succinic acid, reference compound]	6.49	–
CC(C)(C)CN1C(=O)[C@@H](CC(=O)NCC(=O)O)O[C@H](c2ccccc2Cl)c2cc(Cl)ccc21 [Compound B, N-[(3R,5S)-7-chloro-5-(2-chlorophenyl)-1-neopentyl-2-oxo-1,2,3,5-tetrahydro-4,1-benzoxazepin-3-acetyl] aminoacetic acid, reference compound]	6.41	–
O=C(O)CO[C@@H](C(=O)O)[C@@H](OCCCCCc1ccc2ccccc2c1)C(=O)NCCCCCc1ccc2ccccc2c1 [Example 1, (2R,3R)-2-Carboxymethoxy-3-[N-[5-(2-naphthyl)pentyl]carbamoyl]-3-[5-(2-naphthyl)pentyloxy]propionic acid]	6.82	9.52
CN(CCCCCc1ccc2ccccc2c1)C(=O)[C@H](OCCCCNc1ccc2c(c1)CCC2)[C@@H](OCC(=O)O)C(=O)O [Example 48, (2R,3R)-2-Carboxymethoxy-3-[4-(5-indanylamino)butoxy]-3-[N-methyl-N-[5-(2-naphthyl)pentyl]carbamoyl]propionic acid]	7.72	–
